# Measured values from a melting point compilation (Tetko et al.; mined from patent text by program, amines drawn as free bases though some values may be those of a salt).
row,melting point [°C],SMILES
1,205 to 207,O=C(Cc1c[nH]c2ccccc12)Nc1ccccc1C(=O)O
2,176 to 179,COc1ccc(CCC(C)=O)cc1S(N)(=O)=O
3,133,O=C(O)C1CCc2c(OCc3ccccc3)cccc21 (stereo unspecified)
4,157,C#Cc1ccc2c(c1)CCC2=O
5,135,CC(=O)Oc1cc2c(cc1F)C1(OC(=O)c3c1ccc(N)c3N)c1cc(F)c(OC(C)=O)cc1O2
6,50 to 52,c1ccc(COC2COC(c3ccco3)OC2)cc1 (stereo unspecified)
7,190 to 192,O=C1NC(c2ccccc2)CN1S(=O)(=O)c1ccc2c(c1)CCN2C(=S)Nc1ccc(F)cc1 (stereo unspecified)
8,151 to 152,CN1CCN(c2cccc3c2ccn3S(=O)(=O)c2ccc(F)cc2)CC1
9,73.6,CCCNc1ccc(C=O)cc1[N+](=O)[O-]
10,107,CC(C)(C)c1cc2sccc2c(C(C)(C)C)c1O
11,196,COc1ccc(N(C)CC(=O)O)c(C(=O)O)c1
12,106 to 110,CCOC(=O)/C=C/c1ccc(Cl)nn1
13,88 to 89,OCc1cn(Cc2ccc(OCc3ccccc3)cc2)nc1-c1ccccc1
14,217 to 220,Cc1ccc(NC(=O)c2c(C)cccc2N)cc1
15,234 to 236,CC(=O)N1CCNC1=NC(c1ccccc1)c1ccccc1
16,112 to 114,CS(=O)(=O)Nc1cc([N+](=O)[O-])ccc1Oc1ccccc1
17,193,Cc1nn(Cc2ccccc2)cc1C(=O)Nc1ccc(N2CCC(N3CCOCC3)CC2)c(C#N)c1
18,126 to 128,O=c1[nH]c2cscc2c(=O)n1CCCCN1CCN(c2cccc(C(F)(F)F)c2)CC1
19,175 to 176,Cc1ccc(F)c2c1N(CC1CCCO1)C(=O)C21COc2cc3c(cc21)CCO3 (stereo unspecified)

row,melting point [°C],SMILES
1,154,CC(C)(C)C(=O)C(Cl)C(=O)Nc1ccccc1 (stereo unspecified)
2,140 to 141,CC1(C)CC(NC(=O)NCc2ccccc2)c2cc(C#N)ccc2O1 (stereo unspecified)
3,257 to 259,O=C(O)Cc1c(Cl)cnc2c(NC(=O)c3c(Cl)cccc3Cl)cccc12
4,152 to 157,O=C1C(=Cc2ccncc2)C(=O)c2ccccc21
5,70 to 72,CCCCCCCCCCCCCCCCCCOP(=O)(Cc1c(C)cc(C(C)(C)C)c(O)c1C)OCCCCCCCCCCCCCCCCCC
6,157 to 158,CCOc1nn2c(-c3ccccc3Br)nnc2c2ccccc12
7,90,COC(=O)C(C)=C(C(=O)OC)C1C=CC=CC1(C)C(C(=O)OC)=C(C)C(=O)OC (stereo unspecified)
8,> 320,Cc1nccc2[nH]c(=O)c(C(N)=O)cc12
9,162 to 167,CC(=O)Nc1cc(CN(C)C)c2ncc(C#N)c(Nc3cccc(Br)c3)c2c1
10,121 to 123,N=C(Nc1cc(Cl)cc(NC(=O)/C=C/c2ccccc2C(F)(F)F)c1)c1ccsc1
11,241 to 242,CC1(C)CN(C(=O)c2cc3c(C(=O)OC(C)(C)C)ncn3c3ccc(Cl)cc23)CC(C)(C)N1
12,200 to 203,COc1ccc(NC(=O)c2cccnc2)c2c1oc1ccccc12
13,159 to 160,COc1ccc(CNc2nc(SC)ncc2CO)cc1Cl
14,204 to 206,Cc1cc(-c2nc3cccnn3c2-c2ccnc(NC(=O)Nc3ccc(C#N)cc3)c2)ccc1F
15,154 to 155,CC(C)(C)C(S)(CC#N)C(C)(C)C
16,250,CN(C)c1nc(Nc2cc(C(=O)NC3CCC3)n[nH]2)c2occc2n1
17,77 to 79,CCCCCC(CC(=O)Nc1cc(C(N)=O)ccc1C(C)(C)C)c1ccc(OCCCNS(C)(=O)=O)cc1OC (stereo unspecified)
18,124 to 126,O=C1OC(O)c2cccc(O)c21 (stereo unspecified)

# The remaining lines, values behind:
row,SMILES,melting point [°C]
1,Fc1ccc(-c2cc(-c3cccs3)[nH]n2)cc1,181 to 184
2,CCC(O)c1c(C)c(NC(=O)CC(C)(C)C)c(C)c2c1OCC2c1ccc(C(C)C)cc1 (stereo unspecified),165 to 167
3,O=S(=O)(C1=Cc2ccccc2C1)c1ccc(O)cc1,209 to 210
4,O=C1c2nc3ccccn3c2C(=O)c2cccc(F)c21,> 260
5,CS(=O)(=O)c1ccc(-c2cc(C(=O)CCCO[N+](=O)[O-])nn2-c2ccc(Br)cc2)cc1,150 to 152
6,NC[C@H]1CNc2cccc(-c3ccccc3Cl)c2O1,135
7,Nc1nc2ccccc2c2c1ncn2CCCCCC(=O)c1ccccc1,163 to 165
8,O=C(Nc1ccccc1S(=O)(=O)c1ccccc1)N[C@@H](Cc1ccc(Nc2nccc3cnccc23)cc1)C(=O)O,192
9,CCOCCOc1ccc(C(=O)CN(Cc2ccccc2)Cc2ccccc2)cc1C(=O)OC,57
10,CCNC(=O)c1ccc(-c2ccc3c(c2)C(Nc2ccc(Cl)cc2)CC(C)N3C(C)=O)cc1 (stereo unspecified),134
11,CC(C)OC(=O)c1cc(NC(=O)c2ccccc2)c(F)cc1Cl,117 to 119
12,CCCCn1ccc(-c2ccc3c(c2)OCCN3C2CCOCC2)c(Cl)c1=O,141
13,CNC(=O)N1CCC(c2nn(-c3ccc(C(F)(F)F)cc3)c3ccccc23)CC1,150 to 152
14,CC(Cc1ccc(CC2SC(=O)NC2=O)cc1)NCC(O)c1cc(Cl)c(N)c(Cl)c1 (stereo unspecified),195 to 201
15,CCCC12COC(c3ccc(I)cc3)(OC1)SC2,128 to 132
16,Cn1cc2c(n1)Nc1ccc(Cl)cc1NC2=S,> 260
17,COc1cnc(N2CCN(c3ccc([N+](=O)[O-])cc3)CC2)nc1,212

row,SMILES,melting point [°C]
1,CN1CCN(c2ccc(Cl)c(C3(C)C(=O)Nc4ccc(Cl)cc43)c2)CC1 (stereo unspecified),155
2,CC(C)Nc1ccc(C#Cc2cc(C(=O)Nc3ccc(CN4CCN(C)CC4)c(C(F)(F)F)c3)ccc2Cl)nn1,133 to 134
3,O=C(NC(=O)c1cc(F)c(F)cc1Cl)Nc1ccc(C(=O)O)cc1OC(F)(F)F,236
4,CC(=O)Nc1nc(CCc2ccc(NC(=N)N)cc2)c(C(=O)N2CCN(C(C)=O)CC2)s1,206 to 208
5,CCOc1ccc(-n2c(N)cc(=O)[nH]c2=S)cc1,222 to 225
6,CCN(CC)C(=O)COc1cc2ccccc2c(-c2ccccc2)n1,105
7,CS(=O)(=O)NC(=O)N1CC1C#N (stereo unspecified),110 to 112
8,CCCCCCCCCCNC(=O)CC#N,78.5 to 80
9,CCCCCCCCCCCCC1=C(OC(C)=O)C(=O)c2c(Cl)cccc2C1=O,57 to 59
10,CC(C)c1ccccc1N=C1NCCS1,76 to 77
11,CCn1ncnc1COc1nc2c(nnn2-c2ccccc2)c2ccccc12,192 to 195
12,COC(=O)c1ccccc1OCC(O)CNCCNC(=O)C(C)C (stereo unspecified),128 to 129
13,Cc1cccc(-c2nc(CC(=O)O)sc2-c2ccnc(N)c2)c1,132 to 133
14,CN(c1cccc2cc(C3=NCC(CO)S3)[nH]c12)S(=O)(=O)c1cccs1 (stereo unspecified),207 to 208
15,O=C(O)c1ccc2oc([N+](=O)[O-])c(-c3ccccc3)c2c1,271 to 273
16,C[Si](C)(C)O[Si]1(O[Si](C)(C)C)O[Si](O[Si](C)(C)C)(O[Si](C)(C)C)O[Si](O[Si](C)(C)C)(O[Si](C)(C)C)O1,103
17,COc1ccc2c(n1)c(CCNC(=O)c1ccco1)c1n2CCCO1,139 to 140
